Here are results for one compound from ChEMBL document CHEMBL1123020.

Assay [1] concerns the target Beta-2 adrenergic receptor (Canis lupus familiaris) (UniProt P54833). Nature of the assay: Apparent pA2 value for isoproterenol-induced vasodilation (beta2) evaluated against beta-2 adrenergic receptor in anesthetized dogs.
Assay [2] concerns the target Adrenergic receptor beta; ADRB1 & ADRB2 (Homo sapiens) (UniProt P08588+P07550). To be noted: Canis lupus familiaris.
Description: Apparent pA2 value for blockade of isoproterenol-induced increase in heart rate evaluated against beta adrenergic receptor in anesthetized dogs
Assay [3] addresses Beta-1 adrenergic receptor (Homo sapiens) (UniProt P08588). As to conditions: Canis lupus familiaris.
Description: Apparent pA2 value for myocardial contractile force (beta-1) evaluated against beta-1 adrenergic receptor in anesthetized dogs

Chain of Adrenergic receptor beta; ADRB1 & ADRB2 (Homo sapiens) (P07550 whole entry, looked up): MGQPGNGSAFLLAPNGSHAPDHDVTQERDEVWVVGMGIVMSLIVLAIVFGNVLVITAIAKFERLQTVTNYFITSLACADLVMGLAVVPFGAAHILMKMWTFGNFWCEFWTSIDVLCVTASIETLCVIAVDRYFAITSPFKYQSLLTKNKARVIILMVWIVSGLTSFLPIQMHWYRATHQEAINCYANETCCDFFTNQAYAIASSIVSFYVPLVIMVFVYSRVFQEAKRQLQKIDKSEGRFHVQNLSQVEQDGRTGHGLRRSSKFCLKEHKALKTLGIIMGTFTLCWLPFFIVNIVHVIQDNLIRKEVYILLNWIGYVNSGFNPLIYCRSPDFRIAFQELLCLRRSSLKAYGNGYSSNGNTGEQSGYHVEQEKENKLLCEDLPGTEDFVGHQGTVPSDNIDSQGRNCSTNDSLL
Chain of Adrenergic receptor beta; ADRB1 & ADRB2 (Homo sapiens) (P08588 whole entry, looked up): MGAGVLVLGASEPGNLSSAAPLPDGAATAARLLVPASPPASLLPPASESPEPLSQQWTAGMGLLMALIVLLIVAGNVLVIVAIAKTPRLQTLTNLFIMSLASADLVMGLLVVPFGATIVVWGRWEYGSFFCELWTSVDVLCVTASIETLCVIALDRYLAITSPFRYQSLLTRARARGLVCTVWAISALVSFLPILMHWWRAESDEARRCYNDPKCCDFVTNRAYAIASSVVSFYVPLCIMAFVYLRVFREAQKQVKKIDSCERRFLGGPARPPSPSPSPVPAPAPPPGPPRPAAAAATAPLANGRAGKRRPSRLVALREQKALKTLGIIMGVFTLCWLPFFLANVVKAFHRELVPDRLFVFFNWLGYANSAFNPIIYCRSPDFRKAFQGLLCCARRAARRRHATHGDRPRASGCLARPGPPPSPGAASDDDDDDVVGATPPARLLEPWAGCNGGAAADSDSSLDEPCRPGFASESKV
Chain of Beta-1 adrenergic receptor (Homo sapiens) (P08588 whole entry, looked up): as above
Chain of Beta-2 adrenergic receptor (Canis lupus familiaris) (P54833 whole entry, looked up): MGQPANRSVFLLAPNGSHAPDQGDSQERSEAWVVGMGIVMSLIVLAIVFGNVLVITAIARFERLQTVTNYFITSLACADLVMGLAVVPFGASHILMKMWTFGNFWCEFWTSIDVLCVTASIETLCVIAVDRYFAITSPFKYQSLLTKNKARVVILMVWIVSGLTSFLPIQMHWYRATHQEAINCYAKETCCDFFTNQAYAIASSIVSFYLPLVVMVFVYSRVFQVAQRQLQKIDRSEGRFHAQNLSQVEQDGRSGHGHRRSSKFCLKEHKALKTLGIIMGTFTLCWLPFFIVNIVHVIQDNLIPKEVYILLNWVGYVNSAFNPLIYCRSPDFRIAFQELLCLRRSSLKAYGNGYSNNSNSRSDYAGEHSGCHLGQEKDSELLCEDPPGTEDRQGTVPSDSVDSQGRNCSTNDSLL

Regarding `CC(C)NCC(O)COc1ccc(O)c2ccccc12` (stereo not drawn), the Vasodilation in assay [1] came out at 4.82. In assay [2], this compound came in with a Heart rate of 5.12. The compound further had a Contractile force in assay [3] of 4.75.
